Source: the supplement of paper PMC6045584
± gives the standard deviation of the averaged measurements.

Compound: CC(=O)O[C@H]1C(=O)[C@@]2(C)[C@H]([C@H](OC(=O)c3ccccc3)[C@]3(O)C[C@H](OC(=O)[C@H](O)[C@@H](NC(=O)c4ccccc4)c4ccccc4)C(C)=C1C3(C)C)[C@]1(OC(C)=O)CO[C@@H]1C[C@@H]2O [PACLITAXEL]
Assay: surviving fraction relative to DMSO-only wells; higher = less growth inhibition
Details: 0.5 nM; exposure time: 5 days
Method in brief: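 Viability was determined by CellTiter-Glo luminescence, expressed as surviving fraction normalised to the median of DMSO-only wells. The cells were log-phase tumour cell lines seeded at 250–500 per well in 384-well plates and, after 24 hours, exposed continuously for five days to inhibitors at 0.5, 1, 5, 10, 50, 100, 500 and 1000 nM. Three screens per line were run, keeping only lines with replicate Pearson r >0.7 and median Z' >0.3.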

Compared with C33A CERVIX, PCI30 HEADNECK is lower in surviving fraction: 0.855 ± 0.042 for the first, 0.721 ± 0.06 for the second.

Compared with HUO3N1 BONE, T47D BREAST is lower in surviving fraction: 0.808 ± 0.025 for the first, 0.718 ± 0.018 for the second.

First: HELA CERVIX
Second: NY BONE
The surviving fraction of the first is higher: 1.04 ± 0.037 for the first, 0.938 ± 0.019 for the second.

Going from CASKI CERVIX to COLO320DM LARGE INTESTINE, the surviving fraction rises from 0.857 ± 0.054 to 1.12 ± 0.1.

MDAMB361 BREAST and HOSMNG BONE are within error of each other in surviving fraction: 0.974 ± 0.073 for the first, 1.04 ± 0.049 for the second.

First: A549 LUNG
Second: CAL51 BREAST
The surviving fraction of the first is higher: 0.982 ± 0.013 for the first, 0.824 ± 0.04 for the second.

First: OSHN BONE
Second: MCF7 BREAST
The surviving fraction of the first is higher: 1.03 ± 0.025 for the first, 0.863 ± 0.077 for the second.

MDAMB134 BREAST and NCIH441 LUNG are within error of each other in surviving fraction: 0.936 ± 0.055 for the first, 0.961 ± 0.12 for the second.

First: OS25HAL BONE
Second: HCC1954 BREAST
The surviving fraction of the first is higher: 0.99 ± 0.023 for the first, 0.6985 ± 0.00071 for the second.

First: 22RV1 PROSTATE
Second: MDAMB231 BREAST
The surviving fraction of the first is higher: 1.02 ± 0.057 for the first, 0.706 ± 0.028 for the second.

HCC38 BREAST and HU09 BONE are within error of each other in surviving fraction: 0.894 ± 0.17 for the first, 0.811 ± 0.11 for the second.

Going from SAOS2 BONE to MDAMB436 BREAST, the surviving fraction falls from 1.08 ± 0.043 to 0.794 ± 0.033.

93VU HEADNECK and KPD BONE are within error of each other in surviving fraction: 0.972 ± 0.067 for the first, 0.909 ± 0.093 for the second.

SYO1 SYNOVIAL and CAL120 BREAST are within error of each other in surviving fraction: 0.828 ± 0.041 for the first, 0.744 ± 0.044 for the second.

Compared with HCC1395 BREAST, SUM149.B1*.S BREAST is higher in surviving fraction: 0.749 ± 0.14 for the first, 0.994 ± 0.029 for the second.

Same assay, conditions: 1 nM; exposure time: 5 days

Compared with C33A CERVIX, PCI30 HEADNECK is lower in surviving fraction: 0.842 ± 0.054 for the first, 0.355 ± 0.044 for the second.

Going from HUO3N1 BONE to T47D BREAST, the surviving fraction falls from 0.74 ± 0.019 to 0.579 ± 0.01.

First: HELA CERVIX
Second: NY BONE
The surviving fraction of the first is higher: 1.05 ± 0.1 for the first, 0.334 ± 0.015 for the second.

Going from CASKI CERVIX to COLO320DM LARGE INTESTINE, the surviving fraction rises from 0.619 ± 0.029 to 1.1 ± 0.091.

MDAMB361 BREAST and HOSMNG BONE are within error of each other in surviving fraction: 0.952 ± 0.028 for the first, 1.05 ± 0.11 for the second.

Going from A549 LUNG to CAL51 BREAST, the surviving fraction falls from 1.04 ± 0.031 to 0.642 ± 0.076.

Going from OSHN BONE to MCF7 BREAST, the surviving fraction falls from 1.05 ± 0.012 to 0.714 ± 0.016.

MDAMB134 BREAST and NCIH441 LUNG are within error of each other in surviving fraction: 0.994 ± 0.033 for the first, 0.93 ± 0.046 for the second.

Compared with OS25HAL BONE, HCC1954 BREAST is lower in surviving fraction: 0.993 ± 0.039 for the first, 0.569 ± 0.0021 for the second.

First: 22RV1 PROSTATE
Second: MDAMB231 BREAST
The surviving fraction of the first is higher: 1.04 ± 0.066 for the first, 0.328 ± 0.039 for the second.

HCC38 BREAST and HU09 BONE are within error of each other in surviving fraction: 0.492 ± 0.062 for the first, 0.45 ± 0.011 for the second.

First: SAOS2 BONE
Second: MDAMB436 BREAST
The surviving fraction of the first is higher: 1.06 ± 0.018 for the first, 0.684 ± 0.015 for the second.

Going from 93VU HEADNECK to KPD BONE, the surviving fraction rises from 0.752 ± 0.059 to 0.889 ± 0.062.

SYO1 SYNOVIAL and CAL120 BREAST are within error of each other in surviving fraction: 0.592 ± 0.015 for the first, 0.602 ± 0.022 for the second.

Going from HCC1395 BREAST to SUM149.B1*.S BREAST, the surviving fraction rises from 0.821 ± 0.065 to 1.02 ± 0.048.

Same assay, conditions: 5 nM; exposure time: 5 days

First: C33A CERVIX
Second: PCI30 HEADNECK
The surviving fraction of the first is higher: 0.328 ± 0.015 for the first, 0.199 ± 0.022 for the second.

For HUO3N1 BONE, the surviving fraction was 0.334 ± 0.011.
